# Assay results from patent US8822517B2, “Arylosulfonamides for the treatment of CNS diseases” (Adamed SP. Z O.O., priority 2010, dated 2014).
# Tests used:
# [1] = molecular target: T1, serotoninergic 5-HT1A receptor (Homo sapiens, UniProt P08908); assay: Binding assay 5-HT1A (h), [3H]8-OH-DPAT, HEK-293 cells; parameters: expressed in transfected cells; host or cells: HEK-293 cells; conditions: for inhibition at 1 µM: read-out: 5-HT1A
# T1 sequence (P08908 1-422): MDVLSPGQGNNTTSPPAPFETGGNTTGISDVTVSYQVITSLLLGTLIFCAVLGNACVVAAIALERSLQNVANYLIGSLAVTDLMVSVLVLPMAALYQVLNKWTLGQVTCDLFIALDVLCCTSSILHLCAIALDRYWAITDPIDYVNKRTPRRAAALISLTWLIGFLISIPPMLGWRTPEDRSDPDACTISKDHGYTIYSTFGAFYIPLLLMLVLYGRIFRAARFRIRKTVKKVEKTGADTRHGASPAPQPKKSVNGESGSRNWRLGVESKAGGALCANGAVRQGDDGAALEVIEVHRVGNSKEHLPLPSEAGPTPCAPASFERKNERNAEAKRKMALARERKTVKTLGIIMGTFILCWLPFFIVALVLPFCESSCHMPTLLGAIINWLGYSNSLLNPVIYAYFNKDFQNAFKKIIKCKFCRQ
# Procedure, shortened: (§1)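 Test conc. 1×10^−6 M. Read-out by scintillation counting. Specific = total − nonspecific (excess cold ligand).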
# [2] = molecular target: serotoninergic 5-HT6 receptor (Homo sapiens, UniProt P50406); assay: Binding assay 5-HT6 (h), [3H]LSD, CHO cells; parameters: expressed in transfected cells; host or cells: CHO cells; conditions: for inhibition at 1 µM: read-out: 5-HT6
# Sequence of serotoninergic 5-HT6 receptor (P50406 whole entry): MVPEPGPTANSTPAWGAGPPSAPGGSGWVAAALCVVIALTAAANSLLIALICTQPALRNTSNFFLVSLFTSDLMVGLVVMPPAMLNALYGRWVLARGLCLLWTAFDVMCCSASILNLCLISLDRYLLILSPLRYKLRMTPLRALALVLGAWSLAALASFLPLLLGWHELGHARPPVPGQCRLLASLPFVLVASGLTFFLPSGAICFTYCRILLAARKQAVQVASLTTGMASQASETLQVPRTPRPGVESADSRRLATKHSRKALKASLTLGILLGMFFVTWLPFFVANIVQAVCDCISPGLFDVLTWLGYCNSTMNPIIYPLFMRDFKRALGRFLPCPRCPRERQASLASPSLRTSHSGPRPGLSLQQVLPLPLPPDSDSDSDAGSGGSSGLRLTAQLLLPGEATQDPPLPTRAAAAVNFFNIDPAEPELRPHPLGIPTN
# Procedure, shortened: as §1
# [3] = molecular target: T2, serotonine transporter (SERT) receptor (Homo sapiens, UniProt P31645); assay: Binding assay SERT (h), [3H]imipramine, CHO cells; conditions: for inhibition at 1 µM: read-out: SERT [%]
# T2 construct: expressed in transfected cells; host or cells: CHO cells
# T2 sequence (P31645 whole entry): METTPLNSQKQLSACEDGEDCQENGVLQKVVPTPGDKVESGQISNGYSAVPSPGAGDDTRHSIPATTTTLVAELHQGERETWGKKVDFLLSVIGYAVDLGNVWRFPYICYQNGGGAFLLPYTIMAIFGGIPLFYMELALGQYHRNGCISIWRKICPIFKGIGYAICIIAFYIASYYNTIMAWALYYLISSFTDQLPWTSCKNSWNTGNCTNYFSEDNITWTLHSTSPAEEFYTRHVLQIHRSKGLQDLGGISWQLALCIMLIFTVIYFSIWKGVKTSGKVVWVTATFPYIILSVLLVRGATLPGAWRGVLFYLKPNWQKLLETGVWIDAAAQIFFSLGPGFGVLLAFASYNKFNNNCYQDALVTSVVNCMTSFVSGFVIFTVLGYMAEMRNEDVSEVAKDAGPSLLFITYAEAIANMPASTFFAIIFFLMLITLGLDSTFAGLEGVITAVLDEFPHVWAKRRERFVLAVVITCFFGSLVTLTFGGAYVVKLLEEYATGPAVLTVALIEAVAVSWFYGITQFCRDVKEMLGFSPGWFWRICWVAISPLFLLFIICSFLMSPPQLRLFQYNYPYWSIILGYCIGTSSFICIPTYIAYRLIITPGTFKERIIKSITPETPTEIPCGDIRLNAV
# Procedure, shortened: as §1
# dopaminergic D3 receptor = dopaminergic D3 receptor (Homo sapiens, UniProt P35462); assay: Binding assay D3 (h), [3H]methyl-spiperone, CHO cells; parameters: expressed in transfected cells; host or cells: CHO cells; conditions: for inhibition at 1 µM: read-out: D3 [%]
# Sequence of dopaminergic D3 receptor (P35462 whole entry): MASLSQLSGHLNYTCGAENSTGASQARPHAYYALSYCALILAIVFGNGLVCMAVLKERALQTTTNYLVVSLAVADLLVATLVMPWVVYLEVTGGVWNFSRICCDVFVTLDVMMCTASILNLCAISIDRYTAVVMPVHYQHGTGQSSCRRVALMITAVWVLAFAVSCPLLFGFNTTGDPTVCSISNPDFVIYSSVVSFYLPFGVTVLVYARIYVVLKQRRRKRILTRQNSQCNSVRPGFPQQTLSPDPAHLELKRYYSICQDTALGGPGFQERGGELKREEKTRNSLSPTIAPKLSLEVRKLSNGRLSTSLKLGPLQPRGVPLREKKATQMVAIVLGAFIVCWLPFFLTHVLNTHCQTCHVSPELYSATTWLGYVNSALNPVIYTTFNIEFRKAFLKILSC
# Procedure, shortened: as §1
# dopaminergic D2 receptor = dopaminergic D2 receptor (Homo sapiens, UniProt P14416); assay: Binding assay D2S (h), [3H]methyl-spiperone, HEK-293 cells; parameters: expressed in transfected cells; host or cells: HEK-293 cells; conditions: for inhibition at 1 µM: read-out: D2 [%]
# Sequence of dopaminergic D2 receptor (P14416 1-414 isoform P14416-2): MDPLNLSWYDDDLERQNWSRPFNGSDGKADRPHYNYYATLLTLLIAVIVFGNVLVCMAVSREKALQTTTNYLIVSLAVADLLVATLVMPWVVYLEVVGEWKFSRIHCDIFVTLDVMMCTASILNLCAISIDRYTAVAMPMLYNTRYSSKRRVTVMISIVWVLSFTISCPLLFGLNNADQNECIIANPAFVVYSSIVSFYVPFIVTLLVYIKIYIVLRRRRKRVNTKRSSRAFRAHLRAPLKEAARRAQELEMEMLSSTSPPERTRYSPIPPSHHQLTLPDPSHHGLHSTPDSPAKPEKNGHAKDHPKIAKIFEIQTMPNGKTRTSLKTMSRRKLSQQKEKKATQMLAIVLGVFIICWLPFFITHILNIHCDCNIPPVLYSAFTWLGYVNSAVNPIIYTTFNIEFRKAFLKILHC
# Procedure, shortened: as §1
# [4] = molecular target: serotoninergic 5-HT7 receptor (Homo sapiens, UniProt P34969); assay: Binding assay 5-HT7 (h), [3H]LSD, CHO cells; parameters: expressed in transfected cells; host or cells: CHO cells; conditions: for inhibition at 1 µM: read-out: 5-HT7
# Sequence of serotoninergic 5-HT7 receptor (P34969 whole entry): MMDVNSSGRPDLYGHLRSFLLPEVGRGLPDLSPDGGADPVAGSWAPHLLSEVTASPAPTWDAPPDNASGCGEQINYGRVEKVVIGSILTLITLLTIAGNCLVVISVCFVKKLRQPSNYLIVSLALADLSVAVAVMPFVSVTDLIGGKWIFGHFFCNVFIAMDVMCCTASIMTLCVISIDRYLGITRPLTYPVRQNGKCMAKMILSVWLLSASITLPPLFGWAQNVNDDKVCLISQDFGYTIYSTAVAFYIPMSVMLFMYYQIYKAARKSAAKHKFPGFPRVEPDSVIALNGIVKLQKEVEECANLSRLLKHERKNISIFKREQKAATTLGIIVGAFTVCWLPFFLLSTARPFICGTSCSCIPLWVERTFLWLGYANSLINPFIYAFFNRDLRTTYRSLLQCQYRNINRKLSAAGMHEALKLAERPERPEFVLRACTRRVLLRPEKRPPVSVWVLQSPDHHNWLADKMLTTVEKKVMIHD
# Procedure, shortened: as §1
# [5] = molecular target: serotoninergic 5-HT2A receptor (Homo sapiens, UniProt P28223); assay: Binding assay 5-HT2A (h), [3H]ketanserin, HEK-293 cells; parameters: expressed in transfected cells; host or cells: HEK-293 cells; conditions: for inhibition at 1 µM: read-out: 5-HT2A
# Sequence of serotoninergic 5-HT2A receptor (P28223 whole entry): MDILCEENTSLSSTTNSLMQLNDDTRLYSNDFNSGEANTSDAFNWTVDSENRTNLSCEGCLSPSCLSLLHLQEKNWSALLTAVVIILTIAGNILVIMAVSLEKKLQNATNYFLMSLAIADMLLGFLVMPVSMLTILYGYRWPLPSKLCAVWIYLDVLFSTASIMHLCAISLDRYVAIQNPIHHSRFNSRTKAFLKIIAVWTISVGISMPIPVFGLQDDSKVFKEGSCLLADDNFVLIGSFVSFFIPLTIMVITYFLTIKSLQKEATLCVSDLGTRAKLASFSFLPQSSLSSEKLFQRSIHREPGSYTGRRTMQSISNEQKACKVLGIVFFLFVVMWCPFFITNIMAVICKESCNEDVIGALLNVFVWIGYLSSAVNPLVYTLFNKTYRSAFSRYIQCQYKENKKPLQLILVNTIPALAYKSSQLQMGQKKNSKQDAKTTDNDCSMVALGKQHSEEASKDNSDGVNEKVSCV
# Procedure, shortened: as §1
# adrenergic α1 receptor = assay: Binding assay α1 (non-selective), [3H]prazosin, rat cerebral cortex; conditions: percent inhibition of control specific binding; compounds tested at 1×10^−6 M
# Procedure, shortened: as §1
# [6] = percent inhibition of control specific binding, compounds tested at 1×10^−6 M
Molecule,inhibition at 1 µM [1] [%],inhibition at 1 µM [2] [%],inhibition at 1 µM [3] [%],inhibition at 1 µM (dopaminergic D3 receptor) [%],inhibition at 1 µM (dopaminergic D2 receptor) [%],inhibition at 1 µM [4] [%],inhibition at 1 µM [5] [%],α1 [%] (adrenergic α1 receptor),"5-HT1A [1, 6] [%]","5-HT6 [2, 6] [%]","SERT [%] [3, 6] [%]",D3 [%] (dopaminergic D3 receptor; [6]),D2 [%] (dopaminergic D2 receptor; [6]),"5-HT7 [4, 6] [%]","5-HT2A [5, 6] [%]"
"O=S(=O)(NCCCN1CCN(c2cccc3c2OCCO3)CC1)c1ccc2c(c1)CCO2 [Compound 417, N-[3-[4-(2,3-Dihydro-1,4-benzodioxin-5-yl)piperazin-1-yl]propyl]-2,3-dihydrobenzofuran-5-sulphonamide]",100,24,-11,67,68,62,-48,73,–,–,–,–,–,–,–
"Cc1cccc(S(=O)(=O)NCCCN2CCN(c3cccc4[nH]c(=O)[nH]c34)CC2)c1 [Compound 426, 3-Methyl-N-[3-[4-(2-oxo-1,3-dihydrobenzimidazol-4-yl)piperazin-1-yl]propyl]benzenesulphonamide]",79,-4,-18,94,28,85,20,67,–,–,–,–,–,–,–
"O=C1COc2c(cccc2N2CCN(CCCCNS(=O)(=O)c3ccc4ccccc4c3)CC2)N1 [Compound 427, N-[4-[4-(3-oxo-4H-1,4-benzoxazin-8-yl)piperazin-1-yl]butyl]naphthalene-2-sulphonamide]",84,36,13,104,83,98,49,86,–,–,–,–,–,–,–
"O=C1COc2c(cccc2N2CCN(CCCCNS(=O)(=O)c3ccc(F)cc3)CC2)N1 [Compound 428, 4-Fluoro-N-[4-[4-(3-oxo-4H-1,4-benzoxazin-8-yl)piperazin-1-yl]butyl]benzenesulphonamide]",90,33,23,104,78,78,30,72,–,–,–,–,–,–,–
"O=C1COc2c(cccc2N2CCN(CCCCNS(=O)(=O)c3ccc(C(F)(F)F)cc3)CC2)N1 [Compound 429, N-[4-[4-(3-oxo-4H-1,4-benzoxazin-8-yl)piperazin-1-yl]butyl]-4-(trifluoromethyl)benzenesulphonamide]",88,-57,22,104,61,83,35,78,–,–,–,–,–,–,–
"O=C1COc2c(cccc2N2CCN(CCCCNS(=O)(=O)c3cccc(C(F)(F)F)c3)CC2)N1 [Compound 430, N-[4-[4-(3-oxo-4H-1,4-benzoxazin-8-yl)piperazin-1-yl]butyl]-3-(trifluoromethyl)benzenesulphonamide]",86,94,19,101,69,84,87,46,–,–,–,–,–,–,–
"O=C1COc2c(cccc2N2CCN(CCCCNS(=O)(=O)c3ccc(Cl)s3)CC2)N1 [Compound 431, 5-Chloro-N-[4-[4-(3-oxo-4H-1,4-benzoxazin-8-yl)piperazin-1-yl]butyl]thiophene-2-sulphonamide]",101,35,12,103,68,67,31,88,–,–,–,–,–,–,–
"O=S(=O)(NCCCN1CC=C(c2c[nH]c3ccc(F)cc23)CC1)c1cccc(O)c1 [Compound 437, N-[3-[4-(5-Fluoro-1H-indol-3-yl)-3,6-dihydro-2H-pyridin-1-yl]propyl]-3-hydroxybenzenesulphonamide]",24,47,105,100,57,83,74,52,–,–,–,–,–,–,–
"Cc1[nH]c2ccc(Cl)cc2c1C1=CCN(CCCNS(=O)(=O)c2cccc3ccccc23)CC1 [Compound 441, N-[3-[4-(5-Chloro-2-methyl-1H-indol-3-yl)-3,6-dihydro-2H-pyridin-1-yl]propyl]-naphthalene-1-sulphonamide]",54,84,1,72,77,82,57,16,–,–,–,–,–,–,–
"Cc1[nH]c2ccc(Cl)cc2c1C1=CCN(CCCNS(=O)(=O)c2ccc(F)cc2)CC1 [Compound 443, N-[3-[4-(5-Chloro-2-methyl-1H-indol-3-yl)-3,6-dihydro-2H-pyridin-1-yl]propyl]-4-fluorobenzenesulphonamide]",59,92,-9,71,22,54,67,41,–,–,–,–,–,–,–
"Cc1[nH]c2ccc(Cl)cc2c1C1=CCN(CCNS(=O)(=O)c2cccc3ccccc23)CC1 [Compound 447, N-[2-[4-(5-Chloro-2-methyl-1H-indol-3-yl)-3,6-dihydro-2H-pyridin-1-yl]ethyl]-naphthalene-1-sulphonamide]",42,106,23,-17,3,34,19,1,–,–,–,–,–,–,–
"Cc1[nH]c2ccc(Cl)cc2c1C1=CCN(CCNS(=O)(=O)c2ccc(F)cc2)CC1 [Compound 449, N-[2-[4-(5-Chloro-2-methyl-1H-indol-3-yl)-3,6-dihydro-2H-pyridin-1-yl]ethyl]-4-fluorobenzenesulphonamide]",57,93,21,34,31,81,76,12,–,–,–,–,–,–,–
"N-[4-[4-(1H-Indol-4-yl)piperazin-1-yl]butyl]-1,3-benzodioxole-5-sulphonamide [Compound 365]",–,–,–,–,–,–,–,100,90,67,25,100,99,95,55
